The values below come from patent US12702654B2, “Compositions and methods for treating homocystinuria and other conditions using polyamines” (THE REGENTS OF THE UNIVERSITY OF COLORADO, priority 2020, dated 2026).

The test system of data set [1] is HO HCU mice. The experiment in a line: Plasma metabolite levels (tHcy, methionine cycle amino acids, SAM, SAH) in HO HCU mice. It is filed as in vivo, mouse. The conditions noted are these: for plasma Hcy / plasma cysteine levels: HO mice, about 3.0% (w/v) in drinking water ad libitum, normal methionine diet. The protocol: It is noted that WT mice (n=6) include untreated controls. HO HCU mice (N=8, 4 of each sex in each group) were either untreated or treated with about 3.0% (w/v) glycine w/v or about 3.0% (w/v) serine given in drinking water supplied ad libitum for one week. Plasma samples were taken and Hcy and cysteine levels were determined. *** denotes a P value <0.0001.
In accordance with these methods, HO HCU mice (N=8, 4 of each sex in each group) were treated with either about 3.0% glycine w/v or about 3.0% w/v serine given in drinking water supplied ad libitum for one week in the presence and absence of about 3.0% w/v betaine. Plasma samples were taken from the mice at various times and Hcy levels were determined.
Plasma Hcy levels were determined from HO HCU mice (n=8 per group) in the presence and absence of either about 5.0% w/v sodium formate alone or in combination with about 3.0% betaine given in drinking water given ad libitum.
In one exemplary method, mice were given zinc in drinking water. For this example, 8 HO HCU mice were provided drinking water supplemented with zinc (e.g. 0.05% w/v Zinc sulfate) given ad libitum for one week.
(§1) In another exemplary method, the transsulfuration pathway and methionine-folate cycle pathways, as show in the sematic illustrated in FIG. 18A, were assessed. In brief, three experimental groups (n=8 for each group) of male mice consisting of either untreated WT controls or HO HCU mice in the presence or absence of betaine treatment. Betaine was administered by dissolving the compound in drinking water at 30 g/l and was supplied ad libitum to the mice for one week. Treatment water was replenished twice per week.
A comparative reference data set was generated for these mice by examining plasma levels of tHcy, methionine, cysteine, serine, glycine, dimethylglycine, methylglycine (MG, SAM and SAH). In brief, determination of plasma levels of amino acids relevant to the methionine cycle were determined using methods similar to those described in Stabler et al., Blood. 81 (1993) 3404-3413, incorporated in its entirety herein. Determination of hepatic 5-methylTHF was performed by liquid chromatography-tandem mass spectrometry using methods similar to those described in Witham et al., PLoS One. 8 (2013) e77923, incorporated in its entirety herein. The global metabolomic analysis of methionine and folate cycle related metabolites was carried out by Metabolon, Inc. Briefly, sample preparation was performed utilizing the automated MicroLab STAR® system. Sample preparation was performed using a proprietary series of organic and aqueous extractions to remove the protein fraction while allowing maximum recovery of small molecules. The resulting extract was divided into two fractions: one for analysis by liquid chromatography and one for analysis by gas chromatography. Each sample was then frozen and dried under vacuum. The LC/mass spectrometer portion of the platform was based on a Waters ACQUITY UPLC and a Thermo-Finnigan LTQ mass spectrometer, which consisted of an electrospray ionization source and linear ion-trap mass analyzer. Samples were analyzed on a Thermo-Finnigan Trace DSQ fast-scanning single-quadrupole mass spectrometer using electron impact ionization. Identification of known chemical entities was based on comparison to library entries of authenticated standards. Tissue polyamines putrescine, spermidine and spermine and 5-methylthioadenosine (MTA) were determined by liquid chromatography-tandem mass spectrometry using methods similar to those described in Stevens et al., J Chromatogr A 1217 (2010) 3282-3288, incorporated in its entirety herein.

In another data set the test system is Cbs null mouse. The data set can be described thus: Cbs null mouse model (Hcy, survival, liver injury). It is filed as in vivo. The note with it: severe liver damage abolished BHMT-mediated betaine response. An excerpt:
In another exemplary method, an acceptable mouse mode of HCU was used to study various effects of exemplary compositions disclosed herein on aberrant Hcy levels. To date, the majority of research on HCU had been performed using a CBS knockout mouse model. These Cbs (−/−) animals experienced pronounced liver injury and typically die within 2-3 weeks of birth.
In another exemplary method, agents were used to verify involvement of BHMT in the homocystinuria treatment process. In these exemplary methods, a Cbs null mouse was used where severe liver damage to the mouse model interferes with standard HCU treatments to reduce Hcy.

The next data set has as its system DMGDH. The data set can be described thus: Western blotting of hepatic DMGDH protein levels. It is filed as in vivo, mouse. The conditions noted are these: HO HCU mice, about 5.0% sodium formate alone or with about 3.0% betaine in drinking water, about one week. The source says: As shown in FIGS. 12A-12B, a Western blot comparing the level of DMGDH and GAPDH (control) for untreated (HO), treated (e.g. formate agent) and treated with standard treatment combinations (e.g. formate and trimethylglycine (e.g. betaine)) using the HCU mouse model (FIG. 12A); and further illustrating in a histogram plot (FIG. 12B), level of intensity of DMDGH for untreated (HO), treated (e.g. formate agent) and treated with standard treatment combinations (e.g. formate and trimethylglycine (e.g. betaine)) using the HCU mouse model in certain embodiments disclosed herein. Western blotting analysis of hepatic DMGDH protein levels in HO HCU mice in the presence and absence of either about 5.0% sodium formate alone or in combination with about 3.0% betaine given ad libitum in drinking water for about one week. N=9 per group. This figure is representative of three independent experiments.

Data set [2] has as its system HO HCU mice. The experiment in a line: Tail bleeding time / hypercoagulative phenotype in HO HCU mice. It is filed as in vivo, mouse. The conditions noted are these: 4 mM solution in drinking water ad libitum, one week. The protocol:
In another exemplary method, effect of polyamines (e.g. spermidine and spermine) on the hypercoagulative phenotype induced by HCU was assessed which is a measure of treatment for genetic HCU where rapid coagulation is a side effect of these conditions. In brief, mice containing both the human CBS transgene and no functional copy of the mouse equivalent gene were identified by PCR from the litters of progeny of 11181×MKO^+/− F1 mice backcrossed to MKO^+/− mice. These mice were designated as “human only” (HO) mice and used as a human model of HCU. […] In order to further investigate the possible therapeutic potential of polyamine (e.g. spermidine and spermine) therapy in HCU, WT and HO HCU mice were given either: […]; […] in drinking water given ad libitum; or drinking water (untreated, control). After one week, tail bleeding times were determined for untreated wild type (WT) control B6 mice and HO HCU mice from all treatment groups.

Data set [3] has as its system HO HCU mice. The experiment in a line: Plasma metabolite levels (tHcy, methionine cycle amino acids, SAM, SAH) in HO HCU mice. It is filed as in vivo, mouse. The note with it: taurine treatment.
The test system of the next data set is MAT1A. The experiment in a line: Western blotting of hepatic MAT1A expression. It is filed as in vivo, mouse. The note with it: HO HCU mice, 30 g/l in drinking water ad libitum, one week. On the procedure:
(§2) To investigate the effects of these treatments upon the hepatic regulatory changes in enzyme expression induced by HCU, the human transgenic HO mouse model of HCU was used. In brief, experimental groups consisting of 8 HO mice on a C57BL/6J background and 8 C57BL/6J WT littermate control mice bred in house were used. Mice in both groups were male and aged between 3 and 4 months. Except where otherwise stated, all mice were maintained on standard chow. All diets were administered using a paired-feeding design to ensure isocaloric intake between all experimental groups and body weights were measured once per week. There was no significant difference in body weight between mice in any of the experimental groups. Betaine and taurine were in this example, both administered by dissolving these compounds in drinking water at 30 g/l (2% or 3% w/v) and were supplied ad libitum for one week. Treatment water was replenished twice per week.
(§3) These observations are the first to report betaine and taurine acting to regulate expression of these processes. Therefore, this observation supports that taurine alone or in combination with betaine and other treatments for genetic homocystinuria are viable options for avoiding dietary restraints and treating these conditions.

The conditions of data set [4]: mouse, in vivo. On the procedure:
as §1
as §2, with “Betaine and taurine were in this example, both administered by dissolving these compounds in drinking water at 30 g/l (2% or 3% w/v) and were supplied ad libitum for one week. Treatment water was replenished twice per week.” left out

The next data set concerns glutathione. The conditions noted are these: taurine supplementation; cited from earlier work.
For the next data set, the system named is SAHH. The experiment in a line: Western blotting of hepatic SAHH expression. It is filed as in vivo, mouse. The note with it: HO mice, 30 g/l in drinking water ad libitum, one week. The protocol: as §2
(§4) Western blotting analysis of SAHH, MTHFR and SHMT2 expression was performed in liver samples from HO mice in the presence and absence of betaine or taurine treatment.

For a further data set, the system named is SHMT1. The experiment in a line: Western blotting of hepatic SHMT1 expression. The class given is in vivo, mouse. The conditions noted are these: HO mice, 30 g/l in drinking water ad libitum, one week. On the procedure: as §2, §3
Another data set concerns GNMT. The experiment in a line: Western blotting of hepatic GNMT expression. The class given is in vivo, mouse. The conditions noted are these: HO HCU mice, 30 g/l in drinking water ad libitum, one week. On the procedure: as §2, §3
The subject of a further data set is MTHFR. The data set can be described thus: Western blotting of hepatic MTHFR expression. It is filed as in vivo, mouse. The note with it: HO mice, 30 g/l in drinking water ad libitum, one week. On the procedure:
as §2, §4

Data set [5] has as its system HO HCU mice. The conditions noted are these: taurine supplementation; cited from earlier work.
Another data set concerns SHMT2. The data set can be described thus: Western blotting of hepatic SHMT2 expression. It is filed as in vivo, mouse. The note with it: HO mice, 30 g/l in drinking water ad libitum, one week. The protocol: as §2, §4
In another data set the test system is human HCU patients. The conditions noted are these: taurine supplementation; cited from earlier work.
For data set [6], the system named is cysteine oxidation pathways. The data set can be described thus: Cysteine oxidation pathways in HCU (HO model). It is filed as in vivo, mouse. The conditions noted are these: 30 g/l in drinking water, one week. On the procedure:
as §2

Consider `O=S(=O)([O-])[O-].[Zn+2]` [Zinc sulfate], for which the “decrease in plasma homocysteine” value in the data set on HO HCU mice [1] (8 HO HCU mice, 0.05% w/v Zinc sulfate in drinking water ad libitum, one week, p<0.001) is 25%.

As to `NCC(=O)O` [glycine], in the data set with HO HCU mice [1] (one week), the “plasma Hcy” value is given as “significantly lowered” and the plasma cysteine levels entry was “increased”. In addition, the “Hcy in Cbs null mouse model” value with Cbs null mouse was “unable to lower Hcy”.

Consider `N[C@@H](CO)C(=O)O` [serine], for which, in the data set on HO HCU mice [1] (one week), the “plasma Hcy” value is reported as “significantly lowered” and the plasma cysteine levels result is “increased”. Further, the “Hcy in Cbs null mouse model” value in the data set with Cbs null mouse is recorded as “unable to lower Hcy”.

With `O=C[O-].[Na+]` [sodium formate], in the data set with HO HCU mice [1] (HO HCU mice, about 5.0% w/v sodium formate alone or with about 3.0% betaine in drinking water ad libitum, normal methionine/protein diet), the “plasma Hcy levels” value is “significantly lowered”. Further, the “hepatic DMGDH expression levels” value in the data set on DMGDH was “restore normal expression levels”. Moreover, in the data set on Cbs null mouse, the “Hcy in Cbs null mouse model” value is on record as “unable to lower Hcy”.

With `NCCCCNCCCN` [spermidine], in the data set on HO HCU mice [2], the “clotting time (tail bleeding time) compared to untreated HO mice” value is “highly significant increase in clotting time”.

Turning to `NCCCNCCCCNCCCN` [spermine], in the data set with HO HCU mice [2], the “clotting time (tail bleeding time) compared to untreated HO mice” value is listed as “significantly ameliorated”.

Turning to `NCCS(=O)(=O)O` [taurine], the “effect upon lowering plasma tHcy levels” value in the data set on HO HCU mice [3] is recorded as “only a mild effect”. In the data set on MAT1A, the “hepatic MAT1a expression” value is “induced expression”. For the same molecule, the tolerability of doses result in data set [4] is on record as “well tolerated”. Moreover, in the data set on glutathione, the “HCU-induced disturbances in glutathione metabolism and the gamma-glutamyl cycle” value is reported as “effectively normalized”. The “HCU-mediated induction of hepatic SAHH expression” value in the data set with SAHH was “essentially identical reversal”. In addition, the “increase in hepatic SHMT1 expression” value in the data set on SHMT1 came out at 35%. The “hepatic GNMT expression” value with GNMT is on record as “induced expression”. The “HCU-mediated induction of hepatic MTHFR expression” value in the data set on MTHFR is reported as “essentially identical reversal”. The “efficacy of betaine treatment in mice” value in the data set on HO HCU mice [5] is “enhances the efficacy of betaine treatment”. Further, the “HCU-induced repression of hepatic SHMT2” value in the data set on SHMT2 was “essentially identical reversal”. Moreover, in the data set on human HCU patients, the “endothelial dysfunction in human HCU patients” value is reported as “completely ablate endothelial dysfunction”. For the same molecule, in data set [6], the “dysregulation of cysteine oxidation pathways in HCU” value was “ameliorate the dysregulation of cysteine oxidation pathways”.
